We go through 13 molecules from US20100184815A1 (priority 2008, published 2010).

Structures are written as SMILES. Where two headings read alike, the source gives them in different places.

One series concerns the target T1, Gal-4 hPPARβ/δ (Homo sapiens, UniProt Q03181).
T1 construct: Plasmids pGal4-hPPARα, pGal4-hPPARγ, pGal4-hPPARδ and pG5-TK-pGL3 were constructed as previously described by Staels, Bart, et al., Nature 1998 Jun; 25
T1 sequence (Q03181 171-441 limits assumed): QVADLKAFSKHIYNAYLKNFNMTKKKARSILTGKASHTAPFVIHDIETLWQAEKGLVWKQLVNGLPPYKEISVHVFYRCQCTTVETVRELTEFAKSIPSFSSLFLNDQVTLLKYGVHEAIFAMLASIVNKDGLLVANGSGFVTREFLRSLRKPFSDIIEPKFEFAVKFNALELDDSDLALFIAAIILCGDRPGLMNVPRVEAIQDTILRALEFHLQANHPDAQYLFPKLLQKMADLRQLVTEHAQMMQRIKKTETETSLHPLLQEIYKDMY
Nature of the series: Gal4-hPPARδ transient transfection reporter assay in Cos cells. The class given is cell-based. The following applies: luciferase reporter, 24 hours with compound, scale 1-5, read-out: Gal-4 hPPAR β/δ EC50 (scaled number). The essentials: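 Cos cells transiently co-transfected with Gal4-hPPAR expression plasmid, pG5-TK-pGL3 luciferase reporter and β-galactosidase control, then treated 24 h with increasing compound concentrations in DMEM containing 0.2% FCS. Luciferase normalised to β-galactosidase; EC50 from curve fit, at least three experiments.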
A general note: In a reporter assay the amount or activity of a reporter protein is the signal.

The target in the next series is T2, Full Length hPPARα (Homo sapiens, UniProt Q07869).
T2 construct: Full Length; expressed in transfected cells; host or cells: Cos cells
T2 sequence (Q07869 1-468): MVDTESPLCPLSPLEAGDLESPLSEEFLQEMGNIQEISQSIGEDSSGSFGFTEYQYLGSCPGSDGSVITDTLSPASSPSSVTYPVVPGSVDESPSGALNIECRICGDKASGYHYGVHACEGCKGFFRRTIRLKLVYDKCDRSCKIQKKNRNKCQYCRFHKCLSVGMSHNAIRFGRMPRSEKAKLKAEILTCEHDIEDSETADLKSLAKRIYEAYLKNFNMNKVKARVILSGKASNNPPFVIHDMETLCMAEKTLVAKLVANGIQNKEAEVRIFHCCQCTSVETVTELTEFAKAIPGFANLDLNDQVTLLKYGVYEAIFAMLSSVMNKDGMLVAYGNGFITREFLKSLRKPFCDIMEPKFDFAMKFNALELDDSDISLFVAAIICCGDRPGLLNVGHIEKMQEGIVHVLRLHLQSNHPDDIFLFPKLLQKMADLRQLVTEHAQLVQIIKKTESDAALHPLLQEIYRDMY
The series can be described thus: Full length hPPARα transfection assay. To be noted: full length receptor; read-out: Full Length hPPAR α EC50 (scaled number). The class given is cell-based. Here is the method: Transient transfection assays. Cos cells were seeded in 60-mm dishes at a density of 5.5×10^5 cells/dish in Dulbecco's modified Eagle's medium (DMEM) supplemented with 10% fetal calf serum (FCS) and incubated at 37° C. for 24 hours before transfection. Cells were transfected in Opti-MEM (Gibco; Invitrogen, Carlsbad, Calif.) without FCS for 3 hours at 37° C., using polyethylenimine, with reporter and expression plasmids. The plasmid pBluescript (Stratagene, La Jolla, Calif.) was used as carrier DNA to set the final amount of DNA to 5.5 μg/dish. The pCMV-b-galactosidase expression plasmid was cotransfected as a control for transfection efficiency. Transfection was stopped by the addition of DMEM supplemented with 10% FCS, and cells were then incubated at 37° C. After 16 hours, cells were trypsinized and seeded in 96-well plates at the density of 2×10^4 cells/well and incubated for 6 hours in 10% FCS-containing DMEM. Cells were then incubated for 24 hours in DMEM containing 0.2% FCS and increasing concentrations of the compound tested or vehicle (DMSO). At the end of the experiment, cells were washed once with ice-cold PBS, lysed and the luciferase and b-galactosidase assays were performed in a luminometer and spectrophotomer. Transfection efficiencies were normalized with the b-galactosidase activity assay. Half-maximal effective concentration (EC50) was estimated using Prism software (GraphPad). All transfection experiments were performed at least three times.
In the following tables, proprietary compound EC50 values for hPPAR α, β, δ and γ are shown. The EC50 value is the concentration of a drug that induces a response halfway between the baseline and maximum, and is commonly used as a measure of drug potency. EC50 values are reported on a scale of 1 through 5, wherein the value scale is defined for each receptor as follows: […]

For a further series, the system named is pig liver esterase. Nature of the series: Metabolism studies using pig liver esterase. Format: in vitro ADME. To be noted: 37° C. How it is done: The esterase-mediated metabolism of these compounds was studied using commercially available pig liver esterase in the presence and absence of human plasma proteins. The disappearance of parent was monitored over the time course of the incubations using a LC-UV detection system.
A stock solution and working stock solution was prepared for each proprietary compound as described for the human liver microsomal incubations. Working solutions of pig liver esterase in potassium phosphate buffer ([…], pH 7.4) and pig liver esterase in human plasma protein were prepared by dissolving pig liver esterase (2.51 mg) in the phosphate buffer or plasma protein solutions, respectively.
A set of three Eppendorf microfuge tubes (1.5 mL) was appropriately labeled. To each tube was added 1.5 mL of phosphate buffer, pig liver esterase in buffer, or pig liver esterase in human plasma protein solution. These solutions were pre-incubated (37° C., 900 rpm) and the reactions were initiated by adding an aliquot (37.5 μL) of the working solution of proprietary compound to each tube. An aliquot (100 μL) from each tube was removed at time 0, 5, 30, 60, and 120 min and added to a tube containing acetonitrile (200 μL) to stop the reaction.
The samples were centrifuged at 14000 g for 15 minutes at 4° C. The supernatant was transferred to clean labeled HPLC injection vials and stored at −80° C. until analyzed. An aliquot of the supernatant (25 μL) was injected onto the LC-UV system for analysis.
Half lives of a sample of test articles is noted in the following table. Half life was determined in the presence or absence of plasma.

Setting [1] is: pig liver esterase in human plasma protein solution.
Setting [2] is: pig liver esterase in phosphate buffer pH 7.4, no plasma, read-out: Pig Liver Esterase (t1/2 min.) (−) Plasma.
The mark [3] stands for this setting: pig liver esterase in human plasma protein solution, read-out: Pig Liver Esterase (t1/2 min.) (+) Plasma.

As to `CCCCCCCCn1c(COC(=O)c2ccc(OC(C)(C)C(=O)O)cc2)nn(Cc2ccc(C)cc2)c1=O` [Compound 152, 2-methyl-2-(4-(((1-(4-methylbenzyl)-4-octyl-5-oxo-4,5-dihydro-1H-1,2,4-triazol-3-yl)methoxy)carbonyl)phenoxy)propanoic acid], the EC50 on Gal-4 hPPARβ/δ was greater than 1000 nM; on Full Length hPPARα it was less than 1 nM. For the same molecule, the “Pig Liver Esterase (t1/2 min.) (+) Plasma” value (“Pig Liver Esterase” for short) with pig liver esterase (setting [1]) is reported as “Stable”. Further, the half-life at 4.9 µM in the series on pig liver esterase (setting [2]) stood at 30 min.

For the molecule `COC(c1ccc(Cn2cc(COC(=O)c3ccc(SC(C)(C)C(=O)O)cc3)nn2)cc1)(C(F)(F)F)C(F)(F)F` [Compound 75, 2-(4-(((1-(4-(1,1,1,3,3,3-hexafluoro-2-methoxypropan-2-yl)benzyl)-1H-1,2,3-triazol-4-yl)methoxy)carbonyl)phenylthio)-2-methylpropanoic acid], the EC50 at Gal-4 hPPARβ/δ is greater than 1000 nM. The results for the half-life at 4.9 µM in the series with pig liver esterase (setting [3]) and in the series with pig liver esterase (setting [2]) were 160 min and 29 min, respectively.

`CCCCCCCn1c(COC(=O)c2ccc(SC(C)(C)C(=O)O)cc2)nn(Cc2ccc(C(C)(C)C)cc2)c1=O` [Compound 189, 2-(4-(((1-(4-tert-butylbenzyl)-4-heptyl-5-oxo-4,5-dihydro-1H-1,2,4-triazol-3-yl)methoxy)carbonyl)phenylthio)-2-methylpropanoic acid]: the EC50 is greater than 1000 nM at Gal-4 hPPARβ/δ and less than 1 nM on Full Length hPPARα. Also, the half-life at 4.9 µM in the series with pig liver esterase (setting [3]) is 105 min; with pig liver esterase (setting [2]), less than 5 min.

For `CCCCCCCn1c(COC(=O)c2ccc(OC(C)(C)C(=O)O)cc2)nn(Cc2ccc(C)cc2)c1=O` [Compound 192, 2-(4-(((4-heptyl-1-(4-methylbenzyl)-5-oxo-4,5-dihydro-1H-1,2,4-triazol-3-yl)methoxy)carbonyl)phenoxy)-2-methylpropanoic acid], the EC50 on Gal-4 hPPARβ/δ was greater than 1000 nM; on Full Length hPPARα, less than 1 nM. The “Pig Liver Esterase” value in the series on pig liver esterase (setting [1]) is recorded as “Stable”. Moreover, the half-life at 4.9 µM in the series on pig liver esterase (setting [2]) is 27 min.

With `CC(C)(Sc1ccc(C(=O)OCc2cn(Cc3ccc(C(C)(C)C)cc3)nn2)cc1)C(=O)O` [Compound 69, 2-(4-(((1-(4-tert-butylbenzyl)-1H-1,2,3-triazol-4-yl)methoxy)carbonyl)phenylthio)-2-methylpropanoic acid], the EC50 at Gal-4 hPPARβ/δ is greater than 1000 nM. The values for the half-life at 4.9 µM with pig liver esterase (setting [3]) and in the series with pig liver esterase (setting [2]) were 126 min and 14 min, respectively.

Take `CCCCCCCn1c(COC(=O)c2ccc(OC(C)(C)C(=O)O)cc2)nn(Cc2ccc(C(C)(C)C)cc2)c1=O` [Compound 190, 2-(4-(((1-(4-tert-butylbenzyl)-4-heptyl-5-oxo-4,5-dihydro-1H-1,2,4-triazol-3-yl)methoxy)carbonyl)phenoxy)-2-methylpropanoic acid]: the EC50 on Gal-4 hPPARβ/δ is greater than 1000 nM; at Full Length hPPARα it was less than 1 nM. The “Pig Liver Esterase” value in the series on pig liver esterase (setting [1]) is given as “Stable”. Moreover, in the series on pig liver esterase (setting [2]), the half-life at 4.9 µM is 8 min.

Turning to `CCCCCCn1c(COC(=O)c2ccc(OC(C)(C)C(=O)O)cc2)nn(Cc2ccc(C(C)(C)C)cc2)c1=O` [Compound 188, 2-(4-(((1-(4-tert-butylbenzyl)-4-hexyl-5-oxo-4,5-dihydro-1H-1,2,4-triazol-3-yl)methoxy)carbonyl)phenoxy)-2-methylpropanoic acid], the EC50 is greater than 1000 nM at Gal-4 hPPARβ/δ and less than 1 nM at Full Length hPPARα. Besides, the “Pig Liver Esterase” value in the series with pig liver esterase (setting [1]) is reported as “Stable”. Besides, the half-life at 4.9 µM in the series with pig liver esterase (setting [2]) was 9 min.

In the case of `CCCn1c(COC(=O)c2ccc(OC(C)(C)C(=O)O)cc2)nn(Cc2ccc(C(C)(C)C)cc2)c1=O` [Compound 150, 2-(4-(((1-(4-tert-butylbenzyl)-5-oxo-4-propyl-4,5-dihydro-1H-1,2,4-triazol-3-yl)methoxy)carbonyl)phenoxy)-2-methylpropanoic acid], the EC50 on Gal-4 hPPARβ/δ was greater than 1000 nM; on Full Length hPPARα, 1 to 50 nM. Besides, in the series on pig liver esterase (setting [1]), the “Pig Liver Esterase” value is recorded as “Stable”. In addition, the half-life at 4.9 µM in the series on pig liver esterase (setting [2]) stood at 31 min.

For `Cc1ccc(Cn2cc(COC(=O)c3ccc(SC(C)(C)C(=O)O)cc3)cn2)cc1` [Compound 3, 2-methyl-2-(4-(((1-(4-methylbenzyl)-1H-pyrazol-4-yl)methoxy)carbonyl)phenylthio)propanoic acid], the EC50 on Gal-4 hPPARβ/δ was greater than 1000 nM; at Full Length hPPARα, less than 1 nM. Moreover, the half-life at 4.9 µM in the series on pig liver esterase (setting [3]) was greater than 120 min; in the series with pig liver esterase (setting [2]), 19 min.

In the case of `CCCCCCCn1c(COC(=O)c2ccc(SC(C)(C)C(=O)O)cc2)nn(Cc2ccc(C)cc2)c1=O` [Compound 191, 2-(4-(((4-heptyl-1-(4-methylbenzyl)-5-oxo-4,5-dihydro-1H-1,2,4-triazol-3-yl)methoxy)carbonyl)phenylthio)-2-methylpropanoic acid], the EC50 is greater than 1000 nM at Gal-4 hPPARβ/δ and less than 1 nM at Full Length hPPARα. For the same molecule, the “Pig Liver Esterase” value with pig liver esterase (setting [1]) was “Stable”. Besides, the half-life at 4.9 µM in the series on pig liver esterase (setting [2]) was less than 5 min.

For `Cc1ccc(Cn2cc([C@@H](C)OC(=O)c3ccc(SC(C)(C)C(=O)O)cc3)nn2)cc1` [Compound 87, (R)-2-methyl-2-(4-((1-(1-(4-methylbenzyl)-1H-1,2,3-triazol-4-yl)ethoxy)carbonyl)phenylthio)propanoic acid], the EC50 at Gal-4 hPPARβ/δ is greater than 1000 nM. Also, the half-life at 4.9 µM was determined as 83 min with pig liver esterase (setting [3]) and 19 min in the series with pig liver esterase (setting [2]).

For `CCCc1nn(Cc2ccc(C(F)(F)F)cc2)cc1COC(=O)c1ccc(SC(C)(C)C(=O)O)cc1` [Compound 12, 2-methyl-2-(4-(((3-propyl-1-(4-(trifluoromethyl)benzyl)-1H-pyrazol-4-yl)methoxy)carbonyl)phenylthio)propanoic acid], at Gal-4 hPPARβ/δ, the EC50 was greater than 1000 nM. The half-life at 4.9 µM was 61 min with pig liver esterase (setting [3]) and less than 5 min in the series on pig liver esterase (setting [2]).

`CC(C)(Sc1ccc(C(=O)OCCc2cn(Cc3ccc(C(F)(F)F)cc3)nn2)cc1)C(=O)O` [Compound 91, 2-methyl-2-(4-((2-(1-(4-(trifluoromethyl)benzyl)-1H-1,2,3-triazol-4-yl)ethoxy)carbonyl)phenylthio)propanoic acid]: on Gal-4 hPPARβ/δ, the EC50 is greater than 1000 nM. The half-life at 4.9 µM was greater than 120 min with pig liver esterase (setting [3]) and 64 min in the series on pig liver esterase (setting [2]).
